From US4003945A, “Novel cyclopropanecarboxylates” (Sumitomo Chemical Company, Limited, priority 1973, dated 1977)
Converted amounts (≈) assume the structure as drawn.

Columns and labels:
housefly adults = assay: Oil spray, Campbel's turn table, lethal concentration (Test Example 2); assay type: in vivo; settings: Musca domestica, 24 h
Method: A group of about 100 housefly adults was exposed to descending spray for 10 minutes, thereafter was transferred to an observation cage, was fed, and was allowed to stand at room temperature.
After a day, the dead and alive were counted to calculate the lethal ratio.

[1] = test system: larvae of tobacco cut worm, diamondback moth and common cabbage worms; assay: Fumigation of Chinese cabbages in vinyl house with heated wettable powder (Example XIV); assay type: in vivo; settings: 10 grams of 40% wettable powder per 30 m^2 compartment
Text: In the vinyl house, the Chinese cabbages were cultivated and the leaves were parasitized with the larvae of tobacco cut worm, diamondback moth and common cabbage worms.
The vinyl house (its height was 2 m) was divided into compartments of 30 m^2 in area and 10 grams of the present compound (1, 4) in the form of 40% wettable powder was put into the plate heated by fire.

[2] = test system: 3rd or 4th instar larvae of tobacco cut worm; assay: Diluted emulsion sprayed by settling tower on larvae (Example X); assay type: in vivo; settings: emulsion diluted to 50 times, 1 ml
Method: Ten of the 3rd or 4th instar larvae of tobacco cut worm were put into a petri dish of 17 cm in diameter.
One ml of the present compound (4, 11, 28, 92, 94, 95, 109, 111) in form of an emulsion obtained in Example X, which were diluted to 50 times with water, were sprayed by means of a settling tower. The said larvae were removed into another petri dish with the leaves of the chinese cabbage leaves. Observation was made after 48 hrs. As a result, more than 90% of the larvae were dead in each case.

adult leafhoppers = assay: Granule applied to rice plants in Wagner pot (Example XIII); assay type: in vivo, leafhopper; settings: granule of Example W, 10 kg/10 ares
Method: Rice plants at the tillering stage were grown in Wagner pots, and the depth of water was kept at 5 cm.
The present compound (4) obtained in Example W was put into the Wagner pot with 10 kg/10 ares, and the said pot was covered with a wire cage into which 20 adult leafhoppers were released.

adults of houseflies = assay: Oil preparation sprayed on Campbell's turn table (Example XX); assay type: in vivo, housefly; settings: Musca domestica, 24 h; Table 6; 1% oil preparation 5 ml, 10 minutes exposure, next day
Method: The oil preparation obtained as in Example B (5 ml) was sprayed by the use of a Campbell's turn table [Soap & Sanitary Chemicals, Vol. 14, No. 6, 119 (1938) ] on 100 adults of houseflies were exposed to the spray for 10 minutes. The houseflies were then allowed to stand with feeding. On the next day, dead and alive were observed.

[3] = test system: Full grown larvae of the Northern house mosquito; assay: Larvicidal test in beaker with diluted emulsifiable concentrate (Example XIX); assay type: in vivo; settings: Table 5; after 24 hours
Method: 30 Full grown larvae of the Northern house mosquito were released into the beaker with 200 ml of dilution of each emulsifiable concentrates which obtained in Example X.

adult planthoppers = assay: Residual effect on sprayed rice seedlings (Example XV); assay type: in vivo; settings: concentrate diluted to 400 times; observed 24 hours after release
Method: About 20 rice seedlings, cultivated for 20 days after sowing in a flower pot of 8.5 cm in diameter, were sprayed with each of the emulsifiable concentrates obtained as in Example X which were diluted to 400 times with water. After air-drying, each pot was covered with a wire cage, into which 20 adult planthoppers were released as time elapsed. And the observation was made after 24 hours.

tobacco cut worm = assay: Dust on Chinese cabbages in the field (Example XVIII); assay type: in vivo; settings: 5% dust, 3kg/10 ares, for 2 months
Text: Each 5% dust of the present compounds 31, 32, 62, 63 was spread in a ratio of 3kg/10 ares on the Chinese cabbages of 40 days after sowing in the field. And about 9,000 eggs of tobacco cut worm were put on the leaves of the Chinese cabbages per 10 ares every 5 days for a month.

[4] = Oral acute toxicity in male mice (Example XXI); settings: mouse, in vivo, Table 7, male mice of about 20 g
Text: An emulsion prepared by diluting with water the present compounds 31, 32, 33, 34, 35, 46, 63, in the form of an emulsifiable concentrate was orally administrated to male mice of about 20 g in body weight.

[5] = test system: leafhoppers of resistant and susceptible strains; assay: Emulsion sprayed on rice seedlings, leafhoppers released (Example XVI); assay type: in vivo, leafhopper; settings: emulsion diluted to 50 times
Method: About 20 rice seedlings, cultivated for 20 days after sowing in a flower pot of 8.5 cm in diameter were sprayed with each of the present compounds (31, 32, 35, 39, 40, 42, 45, 48, 55, 59, 60, 63, 131 - 134, 139) in the form of an emulsion which were diluted to 50 times. Each pot was put into the beaker and covered with gauze, into which leafhoppers of resistant and susceptible strains, respectively, were released in each beaker. And the number of knocked down insects after 1 hour and the mortality after 24 hours were counted. As a result, the knock down per centage was more than 50% and the mortality was more than 80% in each case.

Compound | mortality at 1 % (adults of houseflies) | LC50 [3] | Mortality (%) After 1 day (adult planthoppers) | Mortality (%) After 6 days (adult planthoppers) | damage of the Chinese cabbages by tobacco cut worms (tobacco cut worm) | LD50 at 48 h [4] | knock down percentage after 1 hour [5] | mortality after 24 hours [5] | also measured
C#CC(C=CC)OC(=O)C1C(C=C(C)C)C1(C)C (stereo not shown) [Compound 1, 1-Ethynyl-2-butenyl chrysanthemate] | – | – | – | – | – | – | – | – | LC50 (housefly adults): 5500 µg/mL (≈ 22.3 mM); increasing of the damage [1]: the increasing of the damage was not found
C#CC(OC(=O)C1C(C=C(C)C)C1(C)C)C(C)=CCC (stereo not shown) [Compound 4, 1-Ethynyl-2-methyl-2-pentenyl chrysanthemate] | – | – | – | – | – | – | – | – | larvae dead after 48 hrs [2]: more than 90%; leafhoppers dead after 24 hrs (adult leafhoppers): more than 90%; LC50 (housefly adults): 1400 µg/mL (≈ 5.1 mM); increasing of the damage [1]: the increasing of the damage was not found
C#CC(C=Cc1ccccc1)OC(=O)C1C(C=C(C)C)C1(C)C (stereo not drawn) [Compound 31, α-Ethynylcinnamyl chrysanthemate] | 92% | 0.12 ppm | 100% | 75.8% | the damage of the Chinese cabbages by tobacco cut worms was not found | > 500 mg/kg | more than 50% | more than 80% | –
C#CC(OC(=O)C1C(C=C(C)C)C1(C)C)C(C)=Cc1ccccc1 (stereo not drawn) [Compound 32, α-Ethynyl-β-methylcinnamyl chrysanthemate] | 96% | 0.069 ppm | 100% | 100% | the damage of the Chinese cabbages by tobacco cut worms was not found | > 500 mg/kg | more than 50% | more than 80% | –
C#CC(OC(=O)C1C(C=C(C)C)C1(C)C)C(C)=Cc1ccc(C)cc1 (stereo not drawn) [Compound 33, α-Ethynyl-β-methyl-4-methylcinnamyl chrysanthemate] | – | 0.34 ppm | – | – | – | > 600 mg/kg | – | – | –
C#CC(OC(=O)C1C(C=C(C)C)C1(C)C)C(C)=Cc1ccccc1Cl (stereo not drawn) [Compound 34, α-Ethynyl-β-methyl-2-chlorocinnamyl chrysanthemate] | – | 0.14 ppm | – | – | – | > 600 mg/kg | – | – | –
C#CC(OC(=O)C1C(C=C(C)C)C1(C)C)C(C)=Cc1ccc2c(c1)OCO2 (stereo not drawn) [Compound 35, α-Ethynyl-β-methyl-3,4-methylenedioxycinnamyl chrysanthemate] | – | – | – | – | – | > 600 mg/kg | more than 50% | more than 80% | –
C#CC(OC(=O)C1C(C=C(C)C)C1(C)C)C(C)=Cc1ccc(C(C)C)cc1 (stereo not drawn) [Compound 46, α-Ethynyl-β-methyl-4-iso-propylcinnamyl chrysanthemate] | – | – | – | – | – | > 600 mg/kg | – | – | –
C#CC(C=CCc1ccccc1)OC(=O)C1C(C=C(C)C)C1(C)C (stereo not drawn) [Compound 62, α-Ethynyl-γ-benzylallyl chrysanthemate] | 93% | 0.034 ppm | 100% | 100% | the damage of the Chinese cabbages by tobacco cut worms was not found | – | – | – | –
C#CC(OC(=O)C1C(C=C(C)C)C1(C)C)C(=Cc1ccccc1)CC (stereo not drawn) [Compound 63, α-Ethynyl-β-ethylcinnamyl chrysanthemate] | 95% | 0.14 ppm | 100% | 53.3% | the damage of the Chinese cabbages by tobacco cut worms was not found | > 600 mg/kg | more than 50% | more than 80% | –
C#CC(OC(=O)C1C(C=C(Cl)Cl)C1(C)C)C(C)=Cc1ccc2c(c1)OCO2 (stereo not drawn) [Compound 139, α-Ethynyl-β-methyl-3,4-methylenedioxy-cinnamyl 2',2'-dimethyl-3'-(2",2"-dichlorovinyl)-cyclopropanecarboxylate] | 95% | – | – | – | – | – | more than 50% | more than 80% | –
